# Test results: US8124381B2, “Process and materials for production of glucosamine and N-acetylglucosamine” (Arkion Life Sciences, priority 2002, dated 2012)
# “Also recorded” adds a separate entry of the source.
# Experiments:
# [1] = target: E. coli glucosamine synthase GlmS*54, SEQ ID NO:6 (Ala39Thr, Arg250Cys, Gly472Ser) (Escherichia coli, UniProt P17169, A39T/G472S/R250C); assay: Effects of phosphorylated sugars on glucosamine synthase, crude extract of lactose-induced 7107-18 cells; type: biochemical; conditions: 10 mM or relatively high concentration
# Chain of E. coli glucosamine synthase GlmS*54, SEQ ID NO:6 (Ala39Thr, Arg250Cys, Gly472Ser) (P17169 whole entry A39T/R250C/G472S): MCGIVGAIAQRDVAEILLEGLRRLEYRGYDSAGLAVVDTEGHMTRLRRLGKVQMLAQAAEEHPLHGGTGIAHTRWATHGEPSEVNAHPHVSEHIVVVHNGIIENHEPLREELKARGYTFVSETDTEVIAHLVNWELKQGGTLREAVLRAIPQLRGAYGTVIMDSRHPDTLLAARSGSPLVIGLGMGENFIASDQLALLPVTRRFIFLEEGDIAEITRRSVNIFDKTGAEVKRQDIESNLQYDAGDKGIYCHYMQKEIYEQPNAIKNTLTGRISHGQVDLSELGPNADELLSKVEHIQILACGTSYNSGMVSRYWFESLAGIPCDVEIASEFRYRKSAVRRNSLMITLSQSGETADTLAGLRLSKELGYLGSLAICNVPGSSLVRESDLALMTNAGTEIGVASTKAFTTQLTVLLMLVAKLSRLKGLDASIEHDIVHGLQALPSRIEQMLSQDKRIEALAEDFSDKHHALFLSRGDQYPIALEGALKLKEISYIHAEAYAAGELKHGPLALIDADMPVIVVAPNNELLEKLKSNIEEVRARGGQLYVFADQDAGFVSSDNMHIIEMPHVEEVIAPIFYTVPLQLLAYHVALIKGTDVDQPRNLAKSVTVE
# Description: (§1) Glucosamine synthetase activity was examined in the presence of various phosphorylated sugars. Crude enzyme extracts was prepared from cells of 7017-18 grown in shake flasks for 24 hours with lactose induction.
# [2] = target: glucose-6-P dehydrogenase (zwf) (Escherichia coli, UniProt P0AC53, A9V); assay: Effect of phosphorylated amino sugars on glucose-6-P dehydrogenase; type: biochemical; conditions: in vitro, FIG. 16
# Chain of glucose-6-P dehydrogenase (zwf) (P0AC53 whole entry A9V): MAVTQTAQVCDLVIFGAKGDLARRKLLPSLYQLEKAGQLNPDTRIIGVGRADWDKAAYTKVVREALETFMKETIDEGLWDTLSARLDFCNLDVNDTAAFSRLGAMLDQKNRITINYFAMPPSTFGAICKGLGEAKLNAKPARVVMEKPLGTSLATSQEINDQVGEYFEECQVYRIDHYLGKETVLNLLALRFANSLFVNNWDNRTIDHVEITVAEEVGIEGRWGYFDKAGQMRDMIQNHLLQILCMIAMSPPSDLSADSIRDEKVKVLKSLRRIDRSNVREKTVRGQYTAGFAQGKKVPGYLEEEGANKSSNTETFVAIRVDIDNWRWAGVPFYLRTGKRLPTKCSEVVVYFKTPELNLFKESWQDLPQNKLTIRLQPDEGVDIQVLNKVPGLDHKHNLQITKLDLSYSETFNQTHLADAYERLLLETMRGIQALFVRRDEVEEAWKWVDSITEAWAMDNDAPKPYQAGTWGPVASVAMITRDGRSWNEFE
# [3] = target: T1, E. coli glucosamine synthase GlmS*54 (Escherichia coli, UniProt P17169, A39T/G472S/R250C); assay: Effects of phosphorylated sugars on glucosamine synthase; type: biochemical
# T1 construct: made in house; host or cells: E. coli 7107-18 (printed '7017-18'; T7-glmS*54 integrated at galK) and strains derived from it; crude extract
# Description: as §1
# [4] = target: phosphoglucoisomerase (Pgi) (Escherichia coli, UniProt P0A6T1); conditions: literature; cited from earlier work
# Chain of phosphoglucoisomerase (Pgi) (Escherichia coli, UniProt P0A6T1) (P0A6T1 whole entry): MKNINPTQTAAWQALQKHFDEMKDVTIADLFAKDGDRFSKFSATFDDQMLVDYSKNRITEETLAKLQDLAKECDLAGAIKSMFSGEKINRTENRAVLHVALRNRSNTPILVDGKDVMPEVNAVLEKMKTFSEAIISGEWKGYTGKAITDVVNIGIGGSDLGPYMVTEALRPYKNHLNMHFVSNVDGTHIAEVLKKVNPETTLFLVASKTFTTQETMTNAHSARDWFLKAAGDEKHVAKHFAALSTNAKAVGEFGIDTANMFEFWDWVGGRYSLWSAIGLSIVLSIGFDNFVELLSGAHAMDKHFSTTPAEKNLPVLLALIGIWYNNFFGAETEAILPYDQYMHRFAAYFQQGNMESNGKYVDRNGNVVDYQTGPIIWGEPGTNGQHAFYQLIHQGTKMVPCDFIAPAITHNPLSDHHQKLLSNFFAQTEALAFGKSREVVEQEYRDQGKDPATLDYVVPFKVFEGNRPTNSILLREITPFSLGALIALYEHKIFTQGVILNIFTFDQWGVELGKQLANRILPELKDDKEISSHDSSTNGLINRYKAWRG
# [5] = target: T2, E. coli GlmS mutant GlmS*124, SEQ ID NO:8 (Leu469Pro) (strain 2123-124) (Escherichia coli, UniProt P17169, L469P); assay: GlmS inhibition and Michaelis-Menten kinetics; type: biochemical
# T2 construct: made in house; host or cells: E. coli strain 2123-124, cell extract
# T2 sequence (P17169 2-609 L469P): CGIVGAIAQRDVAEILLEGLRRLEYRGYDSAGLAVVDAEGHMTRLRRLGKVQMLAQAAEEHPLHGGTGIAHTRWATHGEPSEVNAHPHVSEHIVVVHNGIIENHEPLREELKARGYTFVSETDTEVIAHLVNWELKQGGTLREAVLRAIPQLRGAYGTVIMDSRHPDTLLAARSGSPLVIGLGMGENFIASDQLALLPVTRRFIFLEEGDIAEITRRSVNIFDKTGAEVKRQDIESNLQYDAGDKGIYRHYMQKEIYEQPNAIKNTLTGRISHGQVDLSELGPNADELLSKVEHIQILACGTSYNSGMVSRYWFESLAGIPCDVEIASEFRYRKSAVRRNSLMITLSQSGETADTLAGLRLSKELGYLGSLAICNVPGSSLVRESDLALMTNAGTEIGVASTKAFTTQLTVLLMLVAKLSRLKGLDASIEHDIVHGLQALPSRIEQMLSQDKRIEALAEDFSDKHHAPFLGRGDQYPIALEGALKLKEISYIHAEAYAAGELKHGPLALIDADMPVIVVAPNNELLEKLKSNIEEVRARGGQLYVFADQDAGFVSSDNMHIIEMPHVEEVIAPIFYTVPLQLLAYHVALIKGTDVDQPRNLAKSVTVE
# Description: (§2) Different glucosamine synthetase enzymes, including native B. subtillus GlmS, native E. coli GlmS and mutant E. coli GlmS, were studied in vitro. Cells of various E. coli strains were grown in the M9A medium, harvested, and frozen. Cells extracts were prepared and the glucosamine synthetases were characterized and compared.
# (§3) Enzyme sensitivities to the reaction product glucosamine-6-P were examined. […] This figure highlights the dramatic difference between the wild type GlmS and these mutant GlmS strains.
# (§4) The Mutants 2123-54 and the B. subtilis enzyme have higher Ki values (Table 6). Measured Ki constants for several of these mutants are 4 to 8 times the value for the native enzyme in strain 2123-12. From shake flask studies it is apparent that decreased sensitivity to glucosamine-6-P allows higher glucosamine levels to accumulate.
# (§5) These values are slightly higher than those obtained with the native enzyme.
# [6] = target: E. coli GlmS mutant GlmS*110 (Escherichia coli, UniProt P17169); assay: GlmS inhibition and Michaelis-Menten kinetics; type: biochemical; conditions: read-out: Ki (GlcN-6-P)
# Chain of E. coli GlmS mutant GlmS*110 (P17169 whole entry, change not shown): as the sequence (P17169 whole entry A39T/R250C/G472S) above, with T39A, C250R, S472G counted along it
# Description: as §2, §3, §4, §5
# [7] = target: T3, E. coli GlmS mutant GlmS*72, SEQ ID NO:14 (Glu15Lys, Asp387Val, Ser450Pro, Glu525Gly) (strain 2123-72) (Escherichia coli, UniProt P17169, D387V/E15K/E525G/S450P); assay: GlmS inhibition and Michaelis-Menten kinetics; type: biochemical
# T3 construct: made in house; host or cells: E. coli strain 2123-72 (from 7101-17(DE3), plasmid with glmS*72 integrated), cell extract
# T3 sequence (P17169 2-609 E15K/D387V/S450P/E525G): as the sequence (P17169 2-609 L469P) above, with E14K, D386V, S449P, P468L, E524G counted along it
# Description: as §2, §3, §4, §5
# [8] = target: E. coli GlmS mutant GlmS*69 (Escherichia coli, UniProt P17169); assay: GlmS inhibition and Michaelis-Menten kinetics; type: biochemical; conditions: read-out: Ki (GlcN-6-P)
# Chain of E. coli GlmS mutant GlmS*69 (P17169 whole entry, change not shown): as the sequence (P17169 whole entry A39T/R250C/G472S) above, with T39A, C250R, S472G counted along it
# Description: as §2, §3, §4, §5
# [9] = target: T4, Bacillus subtilis GlmS, wild type, SEQ ID NO:16 (Bacillus subtilis, UniProt P0CI73); assay: biochemical
# T4 construct: made in house; host or cells: E. coli 7107-24 (7101-17(DE3) with pET24d(+)/B. subtilis glmS from ATCC23856), crude cell extract
# T4 sequence (P0CI73 2-600): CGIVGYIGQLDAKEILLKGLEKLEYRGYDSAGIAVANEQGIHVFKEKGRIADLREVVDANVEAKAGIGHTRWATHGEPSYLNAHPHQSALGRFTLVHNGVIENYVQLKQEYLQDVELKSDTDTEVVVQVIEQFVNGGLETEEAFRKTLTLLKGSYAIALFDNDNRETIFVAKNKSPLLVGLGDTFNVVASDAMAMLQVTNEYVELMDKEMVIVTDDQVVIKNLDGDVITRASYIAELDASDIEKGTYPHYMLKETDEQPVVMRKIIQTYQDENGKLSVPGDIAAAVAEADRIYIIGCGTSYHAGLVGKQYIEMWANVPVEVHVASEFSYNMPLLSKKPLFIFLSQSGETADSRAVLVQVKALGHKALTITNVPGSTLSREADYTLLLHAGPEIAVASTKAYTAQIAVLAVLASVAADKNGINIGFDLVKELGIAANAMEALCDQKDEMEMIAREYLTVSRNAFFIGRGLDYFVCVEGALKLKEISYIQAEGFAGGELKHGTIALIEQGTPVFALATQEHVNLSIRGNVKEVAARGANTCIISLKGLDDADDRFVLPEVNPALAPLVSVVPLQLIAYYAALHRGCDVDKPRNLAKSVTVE
# Description: as §2
# Enzyme sensitivities to the reaction product glucosamine-6-P were examined.
# [10] = target: T5, E. coli GlmS (glucosamine-6-phosphate synthase), wild type, SEQ ID NO:2 (strain 2123-12) (Escherichia coli, UniProt P17169); assay: GlmS (glucosamine synthase) inhibition and Michaelis-Menten kinetics, crude extract of strain 2123-12; type: biochemical
# T5 construct: made in house; host or cells: E. coli strain 2123-12 (T7-glmS integrated in the chromosome), crude cell extract
# T5 sequence (P17169 2-609 limits assumed): as the sequence (P17169 2-609 L469P) above, with P468L counted along it
# Description: as §2, §3, §4, §5
# [11] = target: E. coli GlmS mutant GlmS*64 (strain 2123-64) (Escherichia coli, UniProt P17169); assay: GlmS sensitivity to inhibition by glucosamine-6-P; type: biochemical; conditions: 0-30 mM glucosamine-6-P; FIG. 5
# Chain of E. coli GlmS mutant GlmS*64 (strain 2123-64) (P17169 whole entry, change not shown): as the sequence (P17169 whole entry A39T/R250C/G472S) above, with T39A, C250R, S472G counted along it
# Description: as §2, §3
# [12] = target: E. coli GlmS mutant GlmS*4 (strain 2123-4) (Escherichia coli, UniProt P17169); assay: GlmS sensitivity to inhibition by glucosamine-6-P; type: biochemical; conditions: 0-30 mM glucosamine-6-P; FIG. 5
# Chain of E. coli GlmS mutant GlmS*4 (strain 2123-4) (P17169 whole entry, change not shown): as the sequence (P17169 whole entry A39T/R250C/G472S) above, with T39A, C250R, S472G counted along it
# Description: as §2, §3
# [13] = target: E. coli GlmS mutant GlmS*59 (strain 2123-59) (Escherichia coli, UniProt P17169); assay: GlmS sensitivity to inhibition by glucosamine-6-P; type: biochemical; conditions: 0-30 mM glucosamine-6-P; FIG. 5
# Chain of E. coli GlmS mutant GlmS*59 (strain 2123-59) (P17169 whole entry, change not shown): as the sequence (P17169 whole entry A39T/R250C/G472S) above, with T39A, C250R, S472G counted along it
# Description: as §2, §3
# [14] = target: T6, E. coli GlmS mutant GlmS*54, SEQ ID NO:6 (Ala39Thr, Arg250Cys, Gly472Ser) (strain 2123-54) (Escherichia coli, UniProt P17169, A39T/G472S/R250C); assay: GlmS inhibition and Michaelis-Menten kinetics, crude extract of strain 2123-54; type: biochemical
# T6 construct: made in house; host or cells: E. coli strain 2123-54 (lacZ::T7-glmS*54), crude cell extract
# T6 sequence (P17169 2-609 A39T/R250C/G472S): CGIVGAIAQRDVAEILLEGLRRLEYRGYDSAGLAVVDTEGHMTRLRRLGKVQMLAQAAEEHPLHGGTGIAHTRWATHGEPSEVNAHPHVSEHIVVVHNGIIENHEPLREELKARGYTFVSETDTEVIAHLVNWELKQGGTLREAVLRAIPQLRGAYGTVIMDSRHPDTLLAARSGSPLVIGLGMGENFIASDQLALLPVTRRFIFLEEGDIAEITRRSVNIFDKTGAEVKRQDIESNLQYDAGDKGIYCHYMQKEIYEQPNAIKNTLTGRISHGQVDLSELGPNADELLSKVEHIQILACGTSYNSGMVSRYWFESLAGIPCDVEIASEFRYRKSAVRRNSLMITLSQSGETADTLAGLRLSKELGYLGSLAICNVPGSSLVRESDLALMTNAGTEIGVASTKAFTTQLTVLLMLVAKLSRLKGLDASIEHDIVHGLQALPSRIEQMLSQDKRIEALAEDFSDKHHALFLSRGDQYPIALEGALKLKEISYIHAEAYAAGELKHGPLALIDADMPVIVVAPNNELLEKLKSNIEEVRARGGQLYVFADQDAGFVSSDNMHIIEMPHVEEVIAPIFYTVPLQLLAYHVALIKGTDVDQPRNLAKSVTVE
# Description: as §2, §3, §4, §5
# [15] = test system: phosphoglucoisomerase (Pgi); assay: Effect of phosphorylated amino sugars on phosphoglucoisomerase activity (FIG. 15); type: biochemical; conditions: in vitro
# Excerpt: Therefore, effects of glucosamine-6-P and N-acetylglucosamine-6-P on several of the enzymes were examined.
# [16] = test system: phosphoglucoisomerase (Pgi); conditions: cited from earlier work
# [17] = 0-30 mM glucosamine-6-P, FIG. 5
structure (smiles),measurement,setting,value
"N[C@H]1C(O)O[C@H](COP(=O)(O)O)[C@@H](O)[C@@H]1O (stereo partly drawn) [glucosamine-6-P, glucosamine-6-phosphate]",inhibition of glucosamine synthetase (in words),[1],strong inhibition on glucosamine synthetase at relatively high concentration
same,inhibition of glucose-6-P dehydrogenase (zwf),[2],more potent inhibitor of the enzyme than N-acetylglucosamine-6-P
same,activity at 10000 µM,[3],70%
same,activity at 20000 µM,[3],46%
same,inhibition of glucosamine synthetase (in words),[3],strong inhibition
same,reported inhibitor of phosphoglucoisomerase (Pgi),[4],inhibitor
same,Ki,[5],3500 µM
same,sensitivity to GlcN-6-P inhibition,[5]; [17],reduced sensitivity to GlcN-6-P inhibition
same,Ki,[6],1600 µM
same,Ki,[7],1400 µM
same,sensitivity to GlcN-6-P inhibition,[7]; [17],reduced sensitivity to GlcN-6-P inhibition
same,Ki,[8],1500 µM
same,product resistance,"[9]; 0, 2 and 4 mM glucosamine-6-P, FIG. 4",product resistance very comparable to the E. coli mutant GlmS enzymes
same,Ki,[9]; read-out: Ki (GlcN-6-P),1250 µM
same,Ki,[10],560 µM
same,inhibition at 1000 µM,[10]; read-out: loss of activity at 1 mM glucosamine-6-P,~50%
same,sensitivity to GlcN-6-P inhibition,[11],reduced sensitivity to GlcN-6-P inhibition
same,sensitivity to GlcN-6-P inhibition,[12],reduced sensitivity to GlcN-6-P inhibition
same,sensitivity to GlcN-6-P inhibition,[13],reduced sensitivity to GlcN-6-P inhibition
same,Ki,[14],4000 µM
same,effect of glucosamine-6-P on enzyme activity,"[14]; 1 mM glucosamine-6-P, saturating substrates",essentially has no effect on enzyme activity
same,remaining activity at 10000 µM,[14]; read-out: activity remaining at 10 mM glucosamine-6-P,~50%
same,inhibition of Pgi (in words),[15],Inhibition is observed
same,inhibition of phosphoglucoisomerase (literature),[16],reported as an inhibitor of Pgi; also recorded: reported as an inhibitor of phosphoglucoisomerase
